Laboratory results from patent US9216956B2, “Deuterium-enriched 4-hydroxy-5-methoxy-N,1-dimethyl-2-oxo-N-[(4-trifluoro-methyl)phenyl]-1,2-dihydroquinoline-3-carboxamide” (ACTIVE BIOTECH AB, priority 2011, dated 2015).
≈ marks a conversion by molar mass, not a printed value. Where “and” joins values, the source holds several entries; their conditions need not be identical. Equal values may be shown once.

Experiments:
[1] = tested on: CYP1A1 (AhR mediated induction); assay: TV-cell assay: luciferase gene reporter assay for AhR mediated induction of CYP1A1 in TV101L (HepG2) cells; format: cell-based, human; conditions: human, TV101L cells, read-out: Fold induction of luciferase expression
Protocol: (§1) ABR-215050 was tested with respect to its CYP1A inducing capability in vitro in a TV-cell assay. This assay is a luciferase gene reporter assay developed for the measurement of AhR (Aryl hydrocarbon Receptor) mediated induction of CYP1A. Human CYP1A promoters and 5′-flanking sequences were cloned into firefly luciferase expression vectors and stably integrated into the human hepatoma cell line, HepG2 (9). The isolated cell line was renamed TV101L.
(§2) The mechanism for transcription of CYP1A1 involves the binding of the inducer to the Ah receptor followed by a translocation of the ligand-Ah-receptor complex to the nucleus, where it binds to specific enhancer sequences in the 5′-flanking region of the CYP1A1 gene. These sequences are referred to as xenobiotic responsive elements (XREs).
(§3) A luciferase gene reporter assay was used for the measurement of AhR mediated induction of CYP1A1. Human CYP1A1 promoters and 5′-flanking sequences were cloned into firefly luciferase expression vectors and stably integrated into the human hepatoma cell line, HepG2 (8). The isolated cell line was renamed TV101L.
(§4) The cells were seeded in 96 well tissue culture plates 24-48 hours prior to treatment with the test compound. After the addition of ABR-215050 at a concentration of 1, 10 and 100 μM, the cells were further incubated for 12-24 hours. The cells were harvested by the addition of lysis buffer followed by a freezing/thawing cycle. An enzymatic assay was used for the determination of luciferase activity.
(§5) The same assay as used for ABR-215050 was used. The concentrations of ABR-215691 that were used and the results obtained, expressed as fold induction of luciferase expression, are shown in Table 4 and in FIG. 1.

[2] = tested on: AhR (Aryl hydrocarbon Receptor) mediated induction of CYP1A1; assay: as above; format: cell-based, human; conditions: TV-cell assay
Protocol: as §1, §2, §3, §4, §5

[3] = Water solubility; format: physicochemical; conditions: for solubility: water, pH 7, aqueous buffer
Excerpt: The water solubility of ABR-215050 and of its metabolites also was investigated. It is a well-known fact that metabolism in general aims to transform compounds to more water soluble entities (10), which mostly decreases toxicity but also facilitates renal elimination. […]

[4] = In vivo pharmacokinetics in rat: plasma levels of parents and amide-N demethyl metabolite after 1:1 mixture; conditions: plasma, oral, peroral 2.5 mg/kg of each compound (1:1 mixture), read-out: Plasma level
Excerpt: Therefore, the pharmacokinetic characteristics of the amide-N methyl deuterated ABR-215050 (herein below referred to as ABR-215050-dx), wherein the amide-N methyl moiety was tri-deuterated, compared to the non-deuterated parent compound were studied in rat. […] In other words: relative to ABR-215050, the in vivo formation of ABR-215691 was reduced to only 25% when ABR-215050-dx was used.
A deuterated (also referred to as deuterium-enriched) ABR-215050 was synthesized, wherein the amide-N methyl moiety was trideuterated (ABR-215050-dx). This deuterated compound was diluted with non-deuterated ABR-215050 to a molar ratio of 1:1. The 1:1 equivalent molar mixture was administrated to rats in an in vivo experiment. Because of additional 13-carbon labeling in the quinoline scaffold, the formed amide-N demethyl metabolites could be measured selectively by means of HPLC-MS (High performance Liquid Chromatography with Mass Spectrometric detection). In Table 5, the plasma levels of ABR-215050-dx and ABR-215050 (in nM) measured in 4 different rats are shown, as well as the ratio of these two compounds.

[5] = phase II, cited from earlier work
[6] = cited from earlier work
[7] = tested on: CYP1A2; assay: In vivo CYP1A2 induction in rat, MROD activity of liver microsomes
Protocol: (§6) The in vivo induction of CYP1A1 and CYP1A2 after repeated administration of ABR-215050 and of ABR-215050-dx, respectively, was studied in rat.
(§7) Test preparations B and C and blank preparation A were made as follows: For preparation B, ABR-215050 was dissolved in NaOH and sterile water at a concentration of 0.5 mg/mL. The pH of the solution was adjusted to pH 7.4-8.5. Preparation C was made in the same way, using ABR-215050-dx. Preparation A was a blank containing only water. The preparations were stored in a refrigerator for a maximum of one week before use.
(§8) On arrival at the laboratory, the test animals were 9 weeks old Sprague Dawley male rats having a body weight of 250 g. They were divided into 3 groups and were allowed to acclimatize for at least 7 days before the test. During the whole acclimatization and test period, the animals received water and feed (Labfor R70, form Kimstad, Sweden) ad libitum, and were kept under a 12 hours dark/12 hours light cycle, at a temperature of 20±2° C. and a relative humidity of 50±15%.
(§9) Before administration of any test preparation, the body weight of each animal was measured and the individual dose to be administered to an animal was determined based on the weight of the animal. Administration was performed perorally during 4 days, cf.
(§10) At 24 h after administration of the final dose, the animals were weighed and from each animal a final blood sample was withdrawn for a pharmacokinetic analysis. The animals then were euthanized and from each one the liver was withdrawn, weighed, and immediately frozen in crushed dry ice. The livers then were stored at −70° C. until preparation of microsomes.
(§11) Microsomes were prepared according to the method M-0287 “Preparation of subcellular fractions from animal tissues” and then kept at −70° C. until analysis.
(§12) The total protein concentration of the microsomal fraction was determined according to the method M-0289 “Determination of Protein according to Hartree”.

[8] = tested on: CYP1A1; assay: In vivo CYP1A1 induction in rat, EROD activity of liver microsomes
Protocol: as §6, §7, §8, §9, §10, §11, §12

[9] = group mean, 1 mg/kg perorally days 1-4
[10] = individual rat, 1 mg/kg perorally days 1-4, liver microsomes 24 h after final dose, 1 mg/kg
[11] = individual rat, versus water group

COc1cccc2c1c(O)c(C(=O)Nc1ccc(C(F)(F)F)cc1)c(=O)n2C [ABR-215691]
fold induction at 0.01 µM ([1]; 0.01 μM): 15.1 | fold induction at 0.1 µM ([1]; 0.1 μM): 14.9 | fold induction at 1 µM ([1]; 12-24 hours): 21.3 | CYP1A induction (in words) [2]: substantial CYP1A inducing capacity | water solubility (in words) [3]: extremely low water solubility | solubility [3]: < 0.01 µg/mL

CN(C(=O)c1c(O)c2c(O)cccc2n(C)c1=O)c1ccc(C(F)(F)F)cc1 [ABR-222097]
CYP1A induction (in words) [2]: not to induce CYP1A | water solubility (in words) [3]: highly water soluble

COc1cccc2c1c(O)c(C(=O)N(C)c1ccc(C(F)(F)F)cc1)c(=O)n2C [ABR-215050, 4-hydroxy-5-methoxy-N,1-dimethyl-2-oxo-N-[(4-trifluoromethyl)phenyl]-1,2-dihydroquinoline-3-carboxamide, reference compound]
concentration at 1 h ([4]; rat No 1, 1 h): 13.8 µM | concentration at 2 h ([4]; rat No 2, 2 h): 13.9 µM | concentration at 3 h ([4]; rat No 3, 3 h): 7.38 µM | concentration at 4 h ([4]; rat No 4, 4 h): 17.8 µM | fold induction at 1 µM ([1]; 12-24 hours): 5.2 | fold induction at 10 µM ([1]; 10 μM, 12-24 hours): 7.3 | fold induction at 100 µM ([1]; 100 μM, 12-24 hours): 11.8 | CYP1A induction (in words) [2]: did not induce CYP1A | tolerability ([5]; patients): generally well tolerated | median progression free survival ([5]; patients, placebo 3.2 months (p=0.0009)): 7.6 months | fraction of patients with disease progression during the six month period ([5]; placebo 66% (p<0.0001)): 31% | steady state plasma levels ([6]; 1-10 mg/kg/day via drinking water): 0.4 to 1 µM | plasma half-life ([6]; in vivo): 3.4 h | CYP1A2 activity (MROD), Mean [7, 9]: 334 pmol/mg prot/min | mean fold induction of CYP1A2 ([7]; group mean, versus water group): 17 | CYP1A2 activity (MROD) [7, 10]: 311 pmol/mg prot/min and 357 pmol/mg prot/min | CYP1A2 Fold induction [7, 11]: 16 and 18 | CYP1A1 activity (EROD), Mean [8, 9]: 1891 pmol/mg prot/min | mean fold induction of CYP1A1 ([8]; group mean, versus water group): 42 | CYP1A1 activity (EROD) [8, 10]: 1342 pmol/mg prot/min and 2440 pmol/mg prot/min | CYP1A1 Fold induction [8, 11]: 30 and 54 | solubility [3]: 500 µg/mL (≈ 1230 µM)

COc1cccc2[nH]c(=O)c(C(=O)N(C)c3ccc(C(F)(F)F)cc3)c(O)c12 [ABR-219694]
CYP1A induction (in words) [2]: not to induce CYP1A | water solubility (in words) [3]: highly water soluble
